Experimental data: ChEMBL document CHEMBL3351341, “Discovery of a potent and selective EGFR inhibitor (AZD9291) of both sensitizing and T790M resistance mutations that spares the wild type form of the receptor” (J Med Chem, 2014)
Values after ≈ are worked out from the molar mass of the structure shown.

Key:
[1] = target: T1, Insulin-like growth factor 1 receptor (Homo sapiens, UniProt P08069); assay: Inhibition of IGF1R (unknown origin)
[2] = target: Serine/threonine-protein kinase Chk2 (Homo sapiens) (UniProt O96017); assay: Inhibition of CHK2 (unknown origin) at 1 uM relative to control
[3] = target: Calcium/calmodulin-dependent protein kinase kinase 2 (Homo sapiens) (UniProt Q96RR4); assay: Inhibition of CAMKKbeta (unknown origin) at 1 uM relative to control
[4] = target: T1, Insulin-like growth factor 1 receptor; assay: Inhibition of IGF1R (unknown origin) at 1 uM relative to control
[5] = target: T2, Insulin receptor (Homo sapiens, UniProt P06213); assay: Inhibition of INSR (unknown origin) at 1 uM relative to control
[6] = tested on: Mus musculus; assay: Inhibition of EGFR exon 19 deletion activating mutant phosphorylation in human PC9 cells xenografted in SCID mouse at 10 mg/kg, po measured 1 hr post dose; type: functional; details: PC-9, 1 h
[7] = tested on: Mus musculus; assay: Inhibition of EGFR exon 19 deletion activating mutant phosphorylation in human PC9 cells xenografted in SCID mouse at 10 mg/kg, po measured 6 hrs post dose; type: functional; details: PC-9, 6 h
[8] = tested on: Mus musculus; assay: Inhibition of EGFR exon 19 deletion activating mutant phosphorylation in human PC9 cells xenografted in SCID mouse at 10 mg/kg, po measured 16 hrs post dose; type: functional; details: PC-9, 16 h
[9] = tested on: Mus musculus; assay: Inhibition of EGFR exon 19 deletion activating mutant phosphorylation in human PC9 cells xenografted in SCID mouse at 10 mg/kg, po measured 24 hrs post dose; type: functional; details: PC-9, 24 h
[10] = tested on: Mus musculus; assay: Inhibition of EGFR exon 19 deletion activating mutant phosphorylation in human PC9 cells xenografted in SCID mouse at 10 mg/kg, po measured 30 hrs post dose; type: functional; details: PC-9, 30 h
[11] = tested on: Mus musculus; assay: Inhibition of EGFR L858R/[…] double mutant phosphorylation in human NCI-H1975 cells xenografted in SCID mouse at 10 mg/kg, po measured 1 hr post dose; type: functional; details: NCI-H1975, 1 h
[12] = tested on: Mus musculus; assay: Inhibition of EGFR L858R/[…] double mutant phosphorylation in human NCI-H1975 cells xenografted in SCID mouse at 10 mg/kg, po measured 6 hrs post dose; type: functional; details: NCI-H1975, 6 h
[13] = tested on: Mus musculus; assay: Inhibition of EGFR L858R/[…] double mutant phosphorylation in human NCI-H1975 cells xenografted in SCID mouse at 10 mg/kg, po measured 16 hrs post dose; type: functional; details: NCI-H1975, 16 h
[14] = tested on: Mus musculus; assay: Inhibition of EGFR L858R/[…] double mutant phosphorylation in human NCI-H1975 cells xenografted in SCID mouse at 10 mg/kg, po measured 24 hrs post dose; type: functional; details: NCI-H1975, 24 h
[15] = tested on: Mus musculus; assay: Inhibition of EGFR L858R/[…] double mutant phosphorylation in human NCI-H1975 cells xenografted in SCID mouse at 10 mg/kg, po measured 30 hrs post dose; type: functional; details: NCI-H1975, 30 h
[16] = tested on: NCI-H1975; assay: Antitumor activity against human NCI-H1975 cells harboring EGFR L858R/[…] double mutant xenografted in SCID mouse assessed as tumor growth inhibition at 10 mg/kg/day, po qd for 7 days relative to control; type: functional; details: Mus musculus, NCI-H1975, 168 h, read-out: TGI
[17] = Antitumor activity against human PC9 cells harboring EGFR exon 19 deletion activating mutant xenografted in SCID mouse assessed as tumor growth inhibition at 10 mg/kg/day, po qd for 7 days relative to control; type: functional, PC-9; details: Homo sapiens, PC-9, 168 h, read-out: TGI
[18] = tested on: A-431; assay: Antitumor activity against human A431 cells xenografted in SCID mouse assessed as tumor growth inhibition at 10 mg/kg/day, po qd for 7 days relative to control; type: functional; details: Mus musculus, A-431, 168 h, read-out: TGI
[19] = target: T2, Insulin receptor; assay: Inhibition of INSR (unknown origin)
[20] = Lipophilicity, log D of the compound at pH 7.4; type: physicochemical; details: buffer
[21] = Thermodynamic solubility of the compound at pH 7.4; type: physicochemical; details: buffer, read-out: Therm_solubility
[22] = tested on: NCI-H1975; assay: Cytotoxicity against human NCI-H1975 cells harboring EGFR L858R/[…] double mutant assessed as growth inhibition after 72 hrs by SYTOX green nucleic acid staining-based fluorescence assay; type: functional; details: Homo sapiens, NCI-H1975, 72 h
[23] = Cytotoxicity against human PC9 cells harboring EGFR exon 19 deletion activating mutant assessed as growth inhibition after 72 hrs by SYTOX green nucleic acid staining-based fluorescence assay; type: functional, PC-9; details: Homo sapiens, PC-9, 72 h
[24] = Cytotoxicity against human Calu3 cells assessed as growth inhibition after 72 hrs by SYTOX green nucleic acid staining-based fluorescence assay; type: functional, Calu-3; details: Homo sapiens, Calu-3, 72 h
[25] = Unbound fraction in human plasma; type: ADME, cell-free
[26] = Fraction unbound in Han Wistar rat plasma; type: ADME, cell-free
[27] = target: Voltage-gated inwardly rectifying potassium channel KCNH2 (Homo sapiens, UniProt Q12809); assay: Inhibition of human ERG
[28] = Intrinsic clearance in human hepatocytes measured per 10^6 cells; type: ADME, cell-based, Hepatocyte; details: read-out: CLH
[29] = Cmax in mouse at 10 mg/kg, po; type: ADME, organism-based; design: dose 10 mg/kg, route oral; details: in vivo
[30] = tested on: Rattus norvegicus; assay: Clearance in iv dosed Han Wistar rat; type: ADME, organism-based; details: in vivo
[31] = Oral bioavailability in Han Wistar rat at 5 mg/kg; type: ADME, organism-based; details: in vivo
[32] = tested on: NCI-H1975; assay: Antitumor activity against human NCI-H1975 cells harboring EGFR L858R/[…] double mutant xenografted in SCID mouse assessed as tumor growth inhibition at […], po qd for 7 days relative to control; type: functional; details: Mus musculus, NCI-H1975, 168 h, read-out: TGI
[33] = tested on: A-431; assay: Antitumor activity against human A431 cells xenografted in SCID mouse assessed as tumor growth inhibition at […], po qd for 7 days relative to control; type: functional; details: Mus musculus, A-431, 168 h, read-out: TGI
[34] = Unbound fraction in nude mouse plasma; type: ADME, cell-free
[35] = tested on: NCI-H1975; assay: Antitumor activity against human NCI-H1975 cells harboring EGFR L858R/[…] double mutant xenografted in SCID mouse assessed as tumor growth inhibition at 5 mg/kg/day, po qd for 7 days relative to control; type: functional; details: Mus musculus, NCI-H1975, 168 h, read-out: TGI
[36] = tested on: A-431; assay: Antitumor activity against human A431 cells xenografted in SCID mouse assessed as tumor growth inhibition at 5 mg/kg/day, po qd for 7 days relative to control; type: functional; details: Mus musculus, A-431, 168 h, read-out: TGI

T1 sequence (P08069 31-736 limits assumed): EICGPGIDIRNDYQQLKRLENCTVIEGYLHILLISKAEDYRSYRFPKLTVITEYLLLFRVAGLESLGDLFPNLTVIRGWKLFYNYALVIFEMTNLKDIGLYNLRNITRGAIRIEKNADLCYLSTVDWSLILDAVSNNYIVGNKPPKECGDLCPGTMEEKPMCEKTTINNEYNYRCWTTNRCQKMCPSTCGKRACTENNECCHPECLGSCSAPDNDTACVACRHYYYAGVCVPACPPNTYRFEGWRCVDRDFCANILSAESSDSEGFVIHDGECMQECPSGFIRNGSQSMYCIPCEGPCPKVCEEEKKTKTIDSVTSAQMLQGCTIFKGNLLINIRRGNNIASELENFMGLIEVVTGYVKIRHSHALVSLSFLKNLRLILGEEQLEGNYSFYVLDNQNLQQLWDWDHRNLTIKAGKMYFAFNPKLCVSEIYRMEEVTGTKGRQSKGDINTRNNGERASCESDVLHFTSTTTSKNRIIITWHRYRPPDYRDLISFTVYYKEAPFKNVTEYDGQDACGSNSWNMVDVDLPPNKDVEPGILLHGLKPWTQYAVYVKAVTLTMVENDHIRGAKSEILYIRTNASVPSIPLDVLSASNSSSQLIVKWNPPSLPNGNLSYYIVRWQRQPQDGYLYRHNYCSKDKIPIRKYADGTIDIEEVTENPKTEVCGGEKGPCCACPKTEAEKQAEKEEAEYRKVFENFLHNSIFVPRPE
T1 sequence (P08069 741-1367 limits assumed): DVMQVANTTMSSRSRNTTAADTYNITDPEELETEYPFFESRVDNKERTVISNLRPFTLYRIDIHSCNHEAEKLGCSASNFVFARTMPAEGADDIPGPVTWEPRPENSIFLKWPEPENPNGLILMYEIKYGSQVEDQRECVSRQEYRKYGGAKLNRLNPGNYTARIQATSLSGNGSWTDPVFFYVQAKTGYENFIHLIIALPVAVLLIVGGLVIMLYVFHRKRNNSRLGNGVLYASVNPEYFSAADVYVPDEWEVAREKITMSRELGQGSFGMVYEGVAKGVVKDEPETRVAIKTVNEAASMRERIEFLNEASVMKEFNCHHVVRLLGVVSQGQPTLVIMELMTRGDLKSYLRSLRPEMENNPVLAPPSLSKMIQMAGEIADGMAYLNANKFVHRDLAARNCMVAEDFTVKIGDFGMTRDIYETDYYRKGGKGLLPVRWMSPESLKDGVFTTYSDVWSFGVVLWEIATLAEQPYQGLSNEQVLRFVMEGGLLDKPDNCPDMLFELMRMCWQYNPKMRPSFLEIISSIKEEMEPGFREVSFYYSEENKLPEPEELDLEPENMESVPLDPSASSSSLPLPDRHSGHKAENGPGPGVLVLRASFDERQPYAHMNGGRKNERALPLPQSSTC
T2 sequence (P06213 28-758 limits assumed): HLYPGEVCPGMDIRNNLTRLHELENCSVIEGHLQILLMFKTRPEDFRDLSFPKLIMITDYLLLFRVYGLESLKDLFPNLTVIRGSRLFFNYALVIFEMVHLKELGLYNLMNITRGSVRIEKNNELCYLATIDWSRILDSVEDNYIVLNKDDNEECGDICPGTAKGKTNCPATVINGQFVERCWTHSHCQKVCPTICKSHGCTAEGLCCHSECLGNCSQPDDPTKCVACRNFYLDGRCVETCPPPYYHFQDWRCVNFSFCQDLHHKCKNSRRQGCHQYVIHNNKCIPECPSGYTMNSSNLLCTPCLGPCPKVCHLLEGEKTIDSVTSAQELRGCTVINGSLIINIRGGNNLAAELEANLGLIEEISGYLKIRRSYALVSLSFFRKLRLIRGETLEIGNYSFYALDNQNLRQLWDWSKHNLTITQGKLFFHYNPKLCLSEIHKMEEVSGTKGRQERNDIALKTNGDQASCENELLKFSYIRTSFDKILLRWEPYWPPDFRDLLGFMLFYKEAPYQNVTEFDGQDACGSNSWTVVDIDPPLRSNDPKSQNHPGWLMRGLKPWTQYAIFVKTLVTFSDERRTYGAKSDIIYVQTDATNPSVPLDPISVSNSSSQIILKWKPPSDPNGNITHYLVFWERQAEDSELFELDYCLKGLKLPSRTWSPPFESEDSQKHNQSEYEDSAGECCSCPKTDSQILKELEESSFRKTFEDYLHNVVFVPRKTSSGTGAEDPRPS
T2 sequence (P06213 763-1382 limits assumed): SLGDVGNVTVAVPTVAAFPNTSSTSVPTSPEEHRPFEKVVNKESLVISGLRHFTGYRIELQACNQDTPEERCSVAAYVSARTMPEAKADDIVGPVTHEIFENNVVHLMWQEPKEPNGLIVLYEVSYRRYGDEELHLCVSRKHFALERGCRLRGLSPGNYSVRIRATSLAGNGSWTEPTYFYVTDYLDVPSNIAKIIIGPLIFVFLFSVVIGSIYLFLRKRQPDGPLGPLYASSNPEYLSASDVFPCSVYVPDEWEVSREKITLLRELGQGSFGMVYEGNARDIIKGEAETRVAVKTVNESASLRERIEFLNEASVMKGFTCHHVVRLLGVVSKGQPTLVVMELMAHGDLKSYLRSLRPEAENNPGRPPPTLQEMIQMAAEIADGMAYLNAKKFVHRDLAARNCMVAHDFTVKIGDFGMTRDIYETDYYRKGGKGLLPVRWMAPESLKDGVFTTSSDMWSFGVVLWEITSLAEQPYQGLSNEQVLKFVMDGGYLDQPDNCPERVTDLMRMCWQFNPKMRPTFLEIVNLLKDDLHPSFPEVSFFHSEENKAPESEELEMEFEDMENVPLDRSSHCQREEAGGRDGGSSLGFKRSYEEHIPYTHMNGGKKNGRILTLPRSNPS
Chain of Voltage-gated inwardly rectifying potassium channel KCNH2 (Q12809 whole entry): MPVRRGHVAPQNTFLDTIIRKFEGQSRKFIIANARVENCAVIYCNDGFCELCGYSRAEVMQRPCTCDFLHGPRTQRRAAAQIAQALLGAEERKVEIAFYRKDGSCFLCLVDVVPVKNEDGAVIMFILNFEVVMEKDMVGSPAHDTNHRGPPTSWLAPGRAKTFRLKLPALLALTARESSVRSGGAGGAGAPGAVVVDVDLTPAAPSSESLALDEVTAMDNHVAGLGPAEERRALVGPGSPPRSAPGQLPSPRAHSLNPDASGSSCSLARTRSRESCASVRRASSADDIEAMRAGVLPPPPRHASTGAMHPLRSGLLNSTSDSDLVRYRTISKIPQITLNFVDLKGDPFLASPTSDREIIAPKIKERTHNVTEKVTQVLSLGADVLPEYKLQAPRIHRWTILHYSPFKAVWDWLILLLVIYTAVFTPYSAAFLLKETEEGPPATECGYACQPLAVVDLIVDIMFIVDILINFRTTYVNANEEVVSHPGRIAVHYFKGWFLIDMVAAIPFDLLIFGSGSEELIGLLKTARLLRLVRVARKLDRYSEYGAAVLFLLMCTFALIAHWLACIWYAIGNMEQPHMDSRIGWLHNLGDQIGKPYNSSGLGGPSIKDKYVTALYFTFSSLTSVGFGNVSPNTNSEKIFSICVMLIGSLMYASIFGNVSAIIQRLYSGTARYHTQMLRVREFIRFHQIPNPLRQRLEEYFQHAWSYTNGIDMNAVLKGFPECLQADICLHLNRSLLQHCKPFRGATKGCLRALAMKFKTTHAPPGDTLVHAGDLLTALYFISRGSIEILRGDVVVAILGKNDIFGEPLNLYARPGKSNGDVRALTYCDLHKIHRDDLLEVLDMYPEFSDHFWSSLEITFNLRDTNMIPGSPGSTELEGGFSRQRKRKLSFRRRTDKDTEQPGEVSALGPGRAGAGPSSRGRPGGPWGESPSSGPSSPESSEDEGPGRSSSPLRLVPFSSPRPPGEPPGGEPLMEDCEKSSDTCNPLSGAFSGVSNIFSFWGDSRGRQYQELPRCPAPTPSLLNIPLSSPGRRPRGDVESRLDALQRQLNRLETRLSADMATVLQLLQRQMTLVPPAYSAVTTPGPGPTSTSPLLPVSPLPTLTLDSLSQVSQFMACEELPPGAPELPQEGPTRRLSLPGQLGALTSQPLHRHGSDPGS
Chain of Calcium/calmodulin-dependent protein kinase kinase 2 (Homo sapiens) (Q96RR4 2-588 limits assumed): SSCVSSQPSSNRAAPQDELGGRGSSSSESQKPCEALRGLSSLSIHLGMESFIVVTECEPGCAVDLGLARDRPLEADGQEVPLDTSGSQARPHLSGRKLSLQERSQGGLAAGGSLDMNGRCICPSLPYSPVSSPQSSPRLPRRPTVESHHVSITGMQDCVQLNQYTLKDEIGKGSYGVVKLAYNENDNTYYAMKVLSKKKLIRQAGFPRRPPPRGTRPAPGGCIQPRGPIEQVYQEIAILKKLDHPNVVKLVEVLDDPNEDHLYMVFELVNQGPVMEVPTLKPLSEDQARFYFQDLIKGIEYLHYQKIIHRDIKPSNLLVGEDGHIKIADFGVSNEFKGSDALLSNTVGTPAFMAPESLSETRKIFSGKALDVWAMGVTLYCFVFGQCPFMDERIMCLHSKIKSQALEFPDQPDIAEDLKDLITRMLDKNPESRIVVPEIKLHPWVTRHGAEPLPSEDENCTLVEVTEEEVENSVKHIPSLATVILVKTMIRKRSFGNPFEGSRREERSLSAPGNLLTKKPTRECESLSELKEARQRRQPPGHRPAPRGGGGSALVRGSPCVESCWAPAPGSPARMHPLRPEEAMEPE
Chain of Serine/threonine-protein kinase Chk2 (Homo sapiens) (O96017 whole entry): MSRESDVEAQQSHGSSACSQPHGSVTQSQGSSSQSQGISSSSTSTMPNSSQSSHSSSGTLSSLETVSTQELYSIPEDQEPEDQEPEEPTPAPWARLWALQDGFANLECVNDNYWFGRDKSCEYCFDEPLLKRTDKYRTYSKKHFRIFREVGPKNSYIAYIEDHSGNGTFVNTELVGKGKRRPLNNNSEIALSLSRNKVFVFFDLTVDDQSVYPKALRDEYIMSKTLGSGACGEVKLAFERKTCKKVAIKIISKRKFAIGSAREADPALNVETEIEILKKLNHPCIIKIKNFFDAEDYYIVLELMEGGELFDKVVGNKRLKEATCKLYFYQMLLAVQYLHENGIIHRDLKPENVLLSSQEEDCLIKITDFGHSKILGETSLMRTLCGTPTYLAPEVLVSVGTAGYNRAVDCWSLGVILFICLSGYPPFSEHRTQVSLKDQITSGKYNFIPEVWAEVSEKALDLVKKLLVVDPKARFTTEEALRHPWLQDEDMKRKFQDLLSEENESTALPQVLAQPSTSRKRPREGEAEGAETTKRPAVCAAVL

| SMILES | IC50 [1] [nM] | inhibition [4] [%] | inhibition [5] [%] | inhibition in vivo at 10 mg/kg/day [18] [%] | logD [20] | solubility thermodynamic [21] [µM] | GI50 [22] [nM] | GI50 [23] [nM] | GI50 [24] [nM] | fraction unbound [25] | fraction unbound [26] | other results |
| --- | --- | --- | --- | --- | --- | --- | --- | --- | --- | --- | --- | --- |
| COc1ccc(NC(=O)/C=C/CN(C)C)cc1Nc1ncc(Cl)c(-c2cnn3ccccc23)n1 | 4 | 98 | 97 | – | – | – | – | – | – | – | – | inhibition [2]: 90%; inhibition [3]: 94% |
| C=CC(=O)Nc1cc(Nc2ncc(Cl)c(-c3cnn4ccccc34)n2)c(OC)cc1N(C)CCN(C)C | 6 | 97 | 99 | 35 | – | – | – | – | – | – | – | inhibition in vivo at 10 mg/kg [6]: 30%; inhibition in vivo at 10 mg/kg [7]: 83%; inhibition in vivo at 10 mg/kg [8]: 60%; inhibition in vivo at 10 mg/kg [9]: 38%; inhibition in vivo at 10 mg/kg [10]: 10%; inhibition in vivo at 10 mg/kg [11]: 89%; inhibition in vivo at 10 mg/kg [12]: 100%; inhibition in vivo at 10 mg/kg [13]: 94%; inhibition in vivo at 10 mg/kg [14]: 93%; inhibition in vivo at 10 mg/kg [15]: 80%; inhibition in vivo at 10 mg/kg/day [16]: 130%; inhibition in vivo at 10 mg/kg/day [17]: 243%; IC50 [19]: 9 nM |
| C=CC(=O)Nc1cc(Nc2ncc(Cl)c(-c3c[nH]c4ccccc34)n2)c(OC)cc1N(C)CCN(C)C | 7 | – | – | – | 3.3 | 75 (≈ 39 µg/mL) | 2 | 2 | 144 | 0.036 | 0.075 | – |
| C=CC(=O)Nc1cc(Nc2ncc(Cl)c(-c3cn(C)c4ccccc34)n2)c(OC)cc1N(C)CCN(C)C | 40 | – | – | – | 3.3 | 759 (≈ 405 µg/mL) | 4 | 3 | 192 | 0.023 | – | IC50 [27]: 7400 nM; hepatocyte CLint [28]: 10 µL/min/1e6 cells; Cmax [29]: 310 nM; clearance [30]: 27 mL/min/kg; bioavailability [31]: 7% |
| C=CC(=O)Nc1cc(Nc2nccc(-c3c[nH]c4ccccc34)n2)c(OC)cc1N(C)CCN(C)C | 263 | – | – | 133 | 2.9 | 79 (≈ 38.4 µg/mL) | 16 | 21 | 58 | 0.075 | 0.16 | inhibition in vivo at […] [32]: 78%; inhibition in vivo at […] [33]: 83%; fraction unbound [34]: 0.134; inhibition in vivo at 10 mg/kg/day [16]: 123%; inhibition in vivo at 5 mg/kg/day [35]: 125%; inhibition in vivo at 5 mg/kg/day [36]: 85% |
| C=CC(=O)Nc1cc(Nc2ncc(Cl)c(-c3cnn4ccccc34)n2)c(OC)cc1N1CCN(C)CC1 | 2 | 97 | – | – | – | – | – | – | – | – | – | inhibition [3]: 92% |
| C=CC(=O)Nc1cc(Nc2ncc(Cl)c(-c3cnn4ccccc34)n2)c(OC)cc1N1CC[C@@H](N(C)C)C1 | 7 | 98 | 98 | 27 | – | – | – | – | – | – | – | inhibition in vivo at 10 mg/kg [7]: 76%; inhibition in vivo at 10 mg/kg [9]: 68%; inhibition in vivo at 10 mg/kg [12]: 94%; inhibition in vivo at 10 mg/kg [14]: 88%; inhibition in vivo at 10 mg/kg/day [17]: 227%; IC50 [19]: 21 nM |
| C=CC(=O)Nc1cc(Nc2ncc(C#N)c(-c3cn(C)c4ccccc34)n2)c(OC)cc1N(C)CCN(C)C | 38 | – | – | – | 2.7 | 57 (≈ 29.9 µg/mL) | 2 | 0.8 | 101 | 0.089 | 0.11 | IC50 [27]: 4300 nM; hepatocyte CLint [28]: 10 µL/min/1e6 cells; Cmax [29]: 110 nM; clearance [30]: 62 mL/min/kg; bioavailability [31]: 6% |
